Source: patent US8796296B2, “Aminopyrimidine derivatives as LRRK2 modulators” (Genentech, Inc., priority 2011, dated 2014)

Target: LRRK2 (Homo sapiens (Human), UniProt Q5S007, G2019S)
Experiment: In Vitro LRRK2 LabChip Assay (LRRK2 Ki)
Format: biochemical
Method: In Vitro LRRK2 LabChip Assay
This assay was used to determine a compound's potency in inhibiting activity of LRRK2 by determining, Kiapp, IC50, or percent inhibition values. In a polypropylene plate, LRRK2, fluorescently-labeled peptide substrate, ATP and test compound were incubated together. Using a LabChip 3000 (Caliper Life Sciences), after the reaction the substrate was separated by capillary electrophoresis into two populations: phosphorylated and unphosphorylated. The relative amounts of each were quantitated by fluorescence intensity. LRRK2 Ki was determined according to the equation: Y=V0*(1−((x+Ki*(1+S/Km)+Et)/(2*Et)−(((x+Ki*(1+S/Km)+Et)^2−(4*Et*x))^0.5)/(2*Et))). Ki values in Table 4 and elsewhere herein are shown in μM.
Assay conditions and materials used were as follows:
LRRK2 Wild type in 5 mM MgCl2: 15 nM (Invitrogen lot #500607F)
Kinase reaction time: 2 hours
Wild type in 5 mM MgCl2: 80 μM
Kinase: LRRK2 G2019S (Invitrogen cat #PV4882). • LRRK2 Wild type (Invitrogen cat #PV4874).
Substrate: 5FAM-GAGRLGRDKYKTLRQIRQ-CONH2
Complete Reaction Buffer: H2O/25 mM Tris, pH 8.0/5 mM MgCl2/2 mM DTT/0.01% Triton X-100.
For serial dilutions, 34.6 μl DMSO was added to columns 3-24. For the assay controls, 37.5 μl DMSO was added to columns 1 and 2 of rows A and P. a,d and 50 μl 25 μM G-028831 (Staurosporine) was added to columns 1 and 2, row B. For the samples: to start at 100 μM, 37.5 μl DMSO was to columns 1 and 2, then 12.5 μl 10 mM compound; to start at 10 μM, 78 μl DMSO was added to columns 1 & 2, then 2 μl 10 mM compound; and to start at 1 μM, 25 μM compound (2 μl 10 mM cmpd+798 μl DMSO) was added to empty columns 1 and 2. A Precision instrument was used to perform 1:3.16 serial dilutions (“PLK_BM_serial_halflog”).
ATP was diluted to 282.1 μM in Complete Kinase Buffer (final concentration was 130 μM).
In Complete Reaction Buffer, substrate was diluted to 4 μM. Equal volumes of Complete Reaction Buffer and 4 μM substrate were combined to obtain the blank. Equal volumes of Complete Reaction Buffer and 4 μM substrate were combined and to the combined solution was added 2× final LRRK2 concentration.
To a 50 μl polypropylene plate, 5 μl/well buffer/substrate was added by hand to Blank wells. A Biomek FX was used to start the kinase reaction (“PLK SAR 23 ATP”). The following were added to the appropriate wells:
The plate was incubated for 2 hours in the dark. Biomek FX was used to stop the kinase reaction (“PLK Stop”), and 10 μl/well Stop solution was added to the Assay Plate.
Results were read on the LabChip 3000.
The LabChip 3000 was run using the job “LRRK2 IC50” with the following job settings: […]

LRRK2, sequence (Q5S007 whole entry G2019S): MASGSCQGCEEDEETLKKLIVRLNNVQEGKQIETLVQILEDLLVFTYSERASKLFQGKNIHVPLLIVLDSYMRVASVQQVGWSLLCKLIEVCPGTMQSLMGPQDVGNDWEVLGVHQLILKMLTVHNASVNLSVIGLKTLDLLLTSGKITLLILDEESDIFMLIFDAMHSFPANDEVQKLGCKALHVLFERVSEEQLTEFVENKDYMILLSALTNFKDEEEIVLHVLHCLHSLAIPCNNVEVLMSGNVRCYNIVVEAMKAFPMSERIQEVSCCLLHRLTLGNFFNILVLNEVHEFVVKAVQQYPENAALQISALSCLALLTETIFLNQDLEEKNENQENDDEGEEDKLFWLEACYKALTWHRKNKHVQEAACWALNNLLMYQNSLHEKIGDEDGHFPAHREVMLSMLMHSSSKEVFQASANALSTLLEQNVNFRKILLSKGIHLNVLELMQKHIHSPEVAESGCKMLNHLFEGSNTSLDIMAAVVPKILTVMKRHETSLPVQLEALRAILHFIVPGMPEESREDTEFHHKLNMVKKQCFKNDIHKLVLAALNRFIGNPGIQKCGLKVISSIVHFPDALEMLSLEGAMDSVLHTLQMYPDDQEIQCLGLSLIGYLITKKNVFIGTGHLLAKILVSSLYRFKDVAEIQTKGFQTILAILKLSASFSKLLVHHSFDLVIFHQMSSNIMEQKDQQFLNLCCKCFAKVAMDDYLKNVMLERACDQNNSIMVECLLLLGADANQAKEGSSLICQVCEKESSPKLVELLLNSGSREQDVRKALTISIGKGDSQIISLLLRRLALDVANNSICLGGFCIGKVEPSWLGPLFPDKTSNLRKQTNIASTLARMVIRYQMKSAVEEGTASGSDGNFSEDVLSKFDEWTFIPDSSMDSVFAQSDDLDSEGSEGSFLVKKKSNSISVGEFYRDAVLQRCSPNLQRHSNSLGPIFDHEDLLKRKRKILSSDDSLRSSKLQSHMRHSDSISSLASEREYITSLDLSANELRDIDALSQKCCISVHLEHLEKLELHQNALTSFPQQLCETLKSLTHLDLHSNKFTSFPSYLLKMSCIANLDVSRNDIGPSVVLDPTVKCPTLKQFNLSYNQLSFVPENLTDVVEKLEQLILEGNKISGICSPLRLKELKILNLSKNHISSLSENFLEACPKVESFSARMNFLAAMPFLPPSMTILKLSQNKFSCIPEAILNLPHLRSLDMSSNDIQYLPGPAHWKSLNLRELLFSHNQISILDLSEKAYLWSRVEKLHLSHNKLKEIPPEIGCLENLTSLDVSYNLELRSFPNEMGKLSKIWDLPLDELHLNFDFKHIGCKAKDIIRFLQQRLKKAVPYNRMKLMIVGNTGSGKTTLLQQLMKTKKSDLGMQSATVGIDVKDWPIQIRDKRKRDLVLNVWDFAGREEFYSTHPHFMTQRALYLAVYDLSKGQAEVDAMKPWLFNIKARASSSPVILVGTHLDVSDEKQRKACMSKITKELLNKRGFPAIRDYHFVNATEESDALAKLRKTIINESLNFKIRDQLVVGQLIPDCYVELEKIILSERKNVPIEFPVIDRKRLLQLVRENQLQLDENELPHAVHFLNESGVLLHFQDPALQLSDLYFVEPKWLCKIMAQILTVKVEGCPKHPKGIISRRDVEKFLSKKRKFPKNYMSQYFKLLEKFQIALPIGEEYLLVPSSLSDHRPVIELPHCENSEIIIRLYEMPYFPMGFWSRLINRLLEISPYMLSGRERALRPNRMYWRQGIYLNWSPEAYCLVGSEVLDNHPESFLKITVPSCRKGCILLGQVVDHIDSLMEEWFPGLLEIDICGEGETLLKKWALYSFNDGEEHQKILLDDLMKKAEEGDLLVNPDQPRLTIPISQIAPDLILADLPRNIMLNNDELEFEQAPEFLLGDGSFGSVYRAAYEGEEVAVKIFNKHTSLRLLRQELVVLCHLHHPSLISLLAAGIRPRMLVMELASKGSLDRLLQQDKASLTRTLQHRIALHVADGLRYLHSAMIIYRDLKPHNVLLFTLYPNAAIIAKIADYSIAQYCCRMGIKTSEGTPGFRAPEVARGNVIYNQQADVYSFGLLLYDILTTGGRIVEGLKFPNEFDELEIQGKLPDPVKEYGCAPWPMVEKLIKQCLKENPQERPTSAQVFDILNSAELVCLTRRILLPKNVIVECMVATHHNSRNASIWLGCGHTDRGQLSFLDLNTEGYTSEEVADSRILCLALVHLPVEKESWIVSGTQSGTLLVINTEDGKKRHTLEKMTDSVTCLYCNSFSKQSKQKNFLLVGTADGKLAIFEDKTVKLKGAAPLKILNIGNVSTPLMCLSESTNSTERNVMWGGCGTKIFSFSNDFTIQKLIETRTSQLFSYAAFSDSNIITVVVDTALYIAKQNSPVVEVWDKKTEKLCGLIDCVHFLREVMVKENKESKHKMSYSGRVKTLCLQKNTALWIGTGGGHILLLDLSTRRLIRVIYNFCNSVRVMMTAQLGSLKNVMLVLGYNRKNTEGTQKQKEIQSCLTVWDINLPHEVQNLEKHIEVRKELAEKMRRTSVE

| Ki [nM] | Structure (SMILES) |
| --- | --- |
| 6 | CNc1nc(Nc2cc3c(cc2Cl)c(C(=O)N(C)C)cn3C)ncc1C(F)(F)F [Compound 27, 5-chloro-N,N,1-trimethyl-6-(4-(methylamino)-5-(trifluoromethyl)pyrimidin-2-ylamino)-1H-indole-3-carboxamide] |
| 9 | CNc1nc(Nc2ccc3c(c2OC)CN(C2COC2)C3=O)ncc1C(F)(F)F [Compound 20, 4-methoxy-5-(4-(methylamino)-5-(trifluoromethyl)pyrimidin-2-ylamino)-2-(oxetan-3-yl)isoindolin-1-one] |
